From ChEMBL document CHEMBL1138648, “Synthesis of new N-(2-(trifluoromethyl)pyridin-4-yl)anthranilic acid derivatives and their evaluation as anticancer agents” (2004)

What was measured:
Format in all cases: functional
NCI-H460 [1] = experiment: In vitro percent of proliferation of vehicle treated NCI-H460 human lung cell lines was determined at 0.0010 M concentration
SF-268 [2] = experiment: In vitro percent of proliferation of vehicle treated SF-268 human CNS cell lines was determined at 0.0010 M concentration
MCF7 [3] = experiment: In vitro percent of proliferation of vehicle treated MCF-7 human breast cell lines was determined at 0.0010 M concentration
M14 = experiment: Growth inhibitory activity against Melanoma M14 cell line was determined; conditions: Homo sapiens
K562 = experiment: Growth inhibitory activity against Leukemia K-562 cell line was determined; conditions: Homo sapiens
MOLT-4 = experiment: Growth inhibitory activity against Leukemia MOLT-4 cell line was determined; conditions: Homo sapiens
UACC-62 = experiment: Growth inhibitory activity against Melanoma UACC-62 cell line was determined; conditions: Homo sapiens
SF-268 [4] = experiment: Growth inhibitory activity against CNS cancer SF-268 cell line was determined; conditions: Homo sapiens
SF-295 = experiment: Growth inhibitory activity against CNS cancer SF-295 cell line was determined; conditions: Homo sapiens
SF-539 = experiment: Growth inhibitory activity against CNS cancer SF-539 cell line was determined; conditions: Homo sapiens
CCRF-CEM = experiment: Growth inhibitory activity against Leukemia CCRF-CEM cell line was determined; conditions: Homo sapiens
SK-MEL-5 = experiment: Growth inhibitory activity against Melanoma SK-MEL-5 cell line was determined; conditions: Homo sapiens
ACHN = experiment: Growth inhibitory activity against Renal cancer ACHN cell line was determined; conditions: Homo sapiens
MDA-MB-435 = experiment: Growth inhibitory activity against Breast cancer MDA-MB-435 cell line was determined; conditions: Homo sapiens
NCI/ADR-RES = experiment: Growth inhibitory activity against Breast cancer NCI/ADR-RES cell line was determined; conditions: Homo sapiens
MDA-MB-231 = experiment: Growth inhibitory activity against Breast cancer MDA-MB-231/ATCC cell line was determined; conditions: Homo sapiens
EKVX = experiment: Growth inhibitory activity against non small cell lung cancer EKVX cell line was determined; conditions: Homo sapiens
NCI-H460 [5] = experiment: Growth inhibitory activity against non small cell lung cancer H460 cell line was determined; conditions: Homo sapiens
NCI-H522 = experiment: Growth inhibitory activity against non small cell lung cancer H522 cell line was determined; conditions: Homo sapiens
NCI-H23 = experiment: Growth inhibitory activity against non small cell lung cancer NCI-H23 cell line was determined; conditions: Homo sapiens
NCI-H226 = experiment: Growth inhibitory activity against non small cell lung cancer NCI-H226 cell line was determined; conditions: Homo sapiens
A549 = experiment: Growth inhibitory activity against non small cell lung cancer A549/ATCC cells; conditions: Homo sapiens
NCI-H322M = experiment: Growth inhibitory activity against non small cell lung cancer NCI-H322M cell line was determined; conditions: Homo sapiens
HOP-92 = experiment: Growth inhibitory activity against non small cell lung cancer HOP-92 cell line was determined; conditions: Homo sapiens
UACC-257 = experiment: Growth inhibitory activity against Melanoma UACC-257 cell line was determined; conditions: Homo sapiens
KM12 = experiment: Growth inhibitory activity against colon cancer KM12 cell line was determined; conditions: Homo sapiens
MCF7 [6] = experiment: Growth inhibitory activity against Breast cancer MCF-7 cell line was determined; conditions: Homo sapiens
HL-60 = experiment: Growth inhibitory activity against Leukemia HL-60(TB) cell line was determined; conditions: Homo sapiens
RPMI-8226 = experiment: Growth inhibitory activity against Leukemia RPMI-8226 cell line was determined; conditions: Homo sapiens
SR = experiment: Growth inhibitory activity against Leukemia SR cell line was determined; conditions: Homo sapiens
786-0 = experiment: Growth inhibitory activity against Renal cancer 786-0 cell line was determined; conditions: Homo sapiens
SN12C = experiment: Growth inhibitory activity against Renal cancer SN12C cell line was determined; conditions: Homo sapiens
TK-10 = experiment: Growth inhibitory activity against Renal cancer TK-10 cell line was determined; conditions: Homo sapiens
CAKI-1 = experiment: Growth inhibitory activity against Renal cancer CAKI-1 cell line was determined; conditions: Homo sapiens
HCT-15 = experiment: Growth inhibitory activity against colon cancer HCT-15 cell line was determined; conditions: Homo sapiens
SW-620 = experiment: Growth inhibitory activity against colon cancer SW-620 cell line was determined; conditions: Homo sapiens
BT-549 = experiment: Growth inhibitory activity against Breast cancer BT-549 cell line was determined; conditions: Homo sapiens
PC-3 = experiment: Growth inhibitory activity against Prostate cancer PC-3 cell line was determined; conditions: Homo sapiens
Hs-578T = experiment: Growth inhibitory activity against Breast cancer HS 578T cell line was determined; conditions: Homo sapiens
HCC 2998 = experiment: Growth inhibitory activity against colon cancer HCC2998 cell line was determined; conditions: Homo sapiens
OVCAR-3 = experiment: Growth inhibitory activity against Ovarian cancer OVCAR-3 cell line was determined; conditions: Homo sapiens
OVCAR-5 = experiment: Growth inhibitory activity against Ovarian cancer OVCAR-5 cell line was determined; conditions: Homo sapiens
OVCAR-8 = experiment: Growth inhibitory activity against Ovarian cancer OVCAR-8 cell line was determined; conditions: Homo sapiens
DU-145 = experiment: Growth inhibitory activity against Prostate cancer DU-145 cell line was determined; conditions: Homo sapiens

COC(=O)c1ccccc1Nc1ccnc(C(F)(F)F)c1 showed a Proliferation (NCI-H460 [1]) of 100%, a Proliferation (SF-268 [2]) of 103% and a Proliferation (MCF7 [3]) of 96%.

COCCCNC(=O)c1ccccc1Nc1ccnc(C(F)(F)F)c1 was tested, and the Proliferation (NCI-H460 [1]) was 105%, the Proliferation (SF-268 [2]) was 97% and the Proliferation (MCF7 [3]) was 70%.

In the case of O=C(Nc1cccnc1)c1ccccc1Nc1ccnc(C(F)(F)F)c1, the Proliferation (NCI-H460 [1]) is reported as 62%, the Proliferation (SF-268 [2]) is reported as 98% and the Proliferation (MCF7 [3]) is reported as 56%.

With O=C(Oc1ccc(Cl)cc1)c1ccccc1Nc1ccnc(C(F)(F)F)c1 the GI50 (M14) was 2100 nM, the GI50 (K562) was 3.6 µM and the GI50 (MOLT-4) was 100 µM. For the same compound, the GI50 (UACC-62) was 2600 nM, the GI50 (SF-268 [4]) was 4.4 µM and the GI50 (SF-295) was 63 µM. The GI50 (SF-539) was 15 µM, the GI50 (CCRF-CEM) was 4.9 µM and the GI50 (SK-MEL-5) was 17 µM. For the same compound, the GI50 (ACHN) was 11 µM, the GI50 (MDA-MB-435) was 2100 nM and the GI50 (NCI/ADR-RES) was 16 µM. The GI50 (MDA-MB-231) was 1800 nM, the GI50 (EKVX) was 25 µM and the GI50 (NCI-H460 [5]) was 10 µM. The GI50 (NCI-H522) was 4.3 µM, the GI50 (NCI-H23) was 2800 nM and the GI50 (NCI-H226) was 2900 nM. The GI50 (A549) was 15 µM, the GI50 (NCI-H322M) was 17 µM and the GI50 (HOP-92) was 21 µM. For the same compound, the GI50 (UACC-257) was 4.5 µM, the Proliferation (NCI-H460 [1]) was 9% and the GI50 (KM12) was 8.9 µM. It also gave a GI50 (MCF7 [6]) of 3.7 µM, a GI50 (HL-60) of 6.4 µM and a GI50 (RPMI-8226) of 2900 nM. It also gave a GI50 (SR) of 4 µM, a GI50 (786-0) of 2700 nM and a GI50 (SN12C) of 3000 nM. The GI50 (TK-10) was 18 µM, the GI50 (CAKI-1) was 2300 nM and the GI50 (HCT-15) was 2100 nM. For the same compound, the GI50 (SW-620) was 6.6 µM, the GI50 (BT-549) was 15 µM and the GI50 (PC-3) was 17 µM. The GI50 (Hs-578T) was 30 µM, the GI50 (HCC 2998) was 13 µM and the GI50 (OVCAR-3) was 11 µM. For the same compound, the GI50 (OVCAR-5) was 26 µM, the GI50 (OVCAR-8) was 4.1 µM and the GI50 (DU-145) was 19 µM. The Proliferation (SF-268 [2]) was 28% and the Proliferation (MCF7 [3]) was 24%.

Work on COc1ccc(OC(=O)c2ccccc2Nc2ccnc(C(F)(F)F)c2)cc1 yielded a Proliferation (NCI-H460 [1]) of 49%, a Proliferation (SF-268 [2]) of 105% and a Proliferation (MCF7 [3]) of 74%.

CCOC(=O)c1ccccc1Nc1ccnc(C(F)(F)F)c1 was tested, and the Proliferation (NCI-H460 [1]) was 102%, the Proliferation (SF-268 [2]) was 103% and the Proliferation (MCF7 [3]) was 98%.

For O=C(Nc1ccccn1)c1ccccc1Nc1ccnc(C(F)(F)F)c1, the Proliferation (NCI-H460 [1]) was 86%, the Proliferation (SF-268 [2]) was 94% and the Proliferation (MCF7 [3]) was 66%.
